Patent US10767186B2, “Organic compounds” (Novartis AG, priority 2007, dated 2020)
pKd, pKi: −log10 of the molar value.

How the values were obtained:
[1] = target: FRα (FR alpha) and FRβ (FR beta); details: cited from earlier work; for pKd: FRα and FRβ
RFC-deficient C15 cells = assay: Antibody production of test vector clones at low folic acid (ELISA); format: cell-based, Chinese hamster
Procedure: The cells are lacking RFC transporter activity, as disclosed elsewhere (Assaraf, Y. G. and Schimke, R. T. (1987) Proc. Natl. Acad. Sci. USA 84, 7154-7158; Rothem, L., et al., Mol. Pharmacol. 68: 616-624).
RFC-deficient C15 cells are transfected with the test vector by electroporation. […] Cells are diluted to a final density of 5 cells/ml and seeded at 100 μl/well in 96-well plates (i.e. 0.5 cells/well). […] The co-selection utilizing the folate system of the present invention together with an additional selection system (i.e. neo/G418) is applied to provide optimal performance of the selection process. […] This is corroborated by further analysis of antibody expression in the various clones.
The analysis of antibody production is performed in principle as outlined in Example 1.4 above. The concentration of the secreted antibody is monitored using an ELISA assay as follows: Maxisorp microplates are coated with an anti-human IgG. Following blocking with a buffer containing bovine serum albumin (BSA) and several washes, multiple dilutions of the secreted antibody samples are added. Then, a peroxidase-conjugated second antibody consisting of goat anti-human IgG-peroxidase is added. Finally, a colorimetric peroxidase substrate is added following which the resultant dye concentration is determined in each well spectrophotometrically and then compared to standard concentrations of known IgG concentrations.

[2] = target: T1, reduced folate carrier (RFC) (Homo sapiens, UniProt P41440); details: cited from earlier work
T1 sequence (P41440 1-591): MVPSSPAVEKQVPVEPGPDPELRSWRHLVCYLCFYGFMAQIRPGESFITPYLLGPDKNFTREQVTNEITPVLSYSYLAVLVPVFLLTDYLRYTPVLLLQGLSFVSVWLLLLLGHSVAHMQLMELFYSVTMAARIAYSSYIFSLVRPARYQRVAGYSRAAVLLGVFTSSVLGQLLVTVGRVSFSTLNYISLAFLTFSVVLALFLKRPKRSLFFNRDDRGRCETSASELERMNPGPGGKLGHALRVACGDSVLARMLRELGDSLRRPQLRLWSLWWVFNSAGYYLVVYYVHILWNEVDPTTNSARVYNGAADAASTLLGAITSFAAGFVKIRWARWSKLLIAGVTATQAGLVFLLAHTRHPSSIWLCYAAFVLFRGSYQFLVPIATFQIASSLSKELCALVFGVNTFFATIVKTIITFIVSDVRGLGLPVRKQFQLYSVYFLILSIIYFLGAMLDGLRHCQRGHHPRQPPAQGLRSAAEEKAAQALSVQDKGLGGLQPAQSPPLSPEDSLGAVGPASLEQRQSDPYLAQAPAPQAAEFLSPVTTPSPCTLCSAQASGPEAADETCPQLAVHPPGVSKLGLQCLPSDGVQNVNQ

CHO-K1 cell line = assay: Folic acid starvation experiment, cell survival; format: cell-based, Chinese hamster
Procedure: Cells are cultivated in such medium and cell viability is analyzed to quantify the percentage of surviving cells.

C#CCN(c1ccc(C(=O)N[C@@H](CCC(=O)N[C@H](CCC(=O)O)C(=O)O)C(=O)O)cc1)[C@H]1CCc2cc3nc(CO)[nH]c(=O)c3cc21 [BGC945]
pKd [1]: 9.00

Nc1nc2c(c(=O)[nH]1)CC(CCc1ccc(C(=O)N[C@@H](CCC(=O)O)C(=O)O)cc1)CN2 (some centres unmarked) [DDATHF, 5,10-dideazatetrahydrofolic acid]
pKi ([1]; using [3H]folic acid as a substrate): 8.89 to 9.40

CN(Cc1cnc2nc(N)nc(N)c2n1)c1ccc(C(=O)N[C@@H](CCC(=O)O)C(=O)O)cc1 [MTX, 4-amino-10-methylfolic acid]
pKd [1]: < 7.00

Nc1nc2ncc(CNc3ccc(C(=O)N[C@@H](CCC(=O)O)C(=O)O)cc3)nc2c(=O)[nH]1 [folic acid]
CmAb: concentration of the secreted antibody in the medium (RFC-deficient C15 cells; folic acid 60 pM in the medium): 216 ± 30 µg/L
CmAb: concentration of the secreted antibody in the medium (RFC-deficient C15 cells; folic acid 600 pM in the medium): 138 ± 15 µg/L
CmAb: concentration of the secreted antibody in the medium (RFC-deficient C15 cells; folic acid 1200 pM in the medium): 19 ± 8 µg/L
Kt (transport affinity) [2]: 200 to 400 µM
Precentage of Survival (CHO-K1 cell line; FA concentration 0.1 nM): 2.08
Precentage of Survival (CHO-K1 cell line; FA concentration 1 nM): 2.45
Precentage of Survival (CHO-K1 cell line; FA concentration 3 nM): 2
Precentage of Survival (CHO-K1 cell line; FA concentration 10 nM): 2.7
Precentage of Survival (CHO-K1 cell line; FA concentration 30 nM): 6.8
Precentage of Survival (CHO-K1 cell line; FA concentration 100 nM): 55.5
Precentage of Survival (CHO-K1 cell line; FA concentration 300 nM): 88.6
Precentage of Survival (CHO-K1 cell line; FA concentration 1000 nM): 100.8
Precentage of Survival (CHO-K1 cell line; FA concentration 2300 nM): 100

Nc1nc2c(c(=O)[nH]1)N(C=O)C(CNc1ccc(C(=O)N[C@@H](CCC(=O)O)C(=O)O)cc1)CN2 (some centres unmarked) [leucovorin, 5-formyl-THF]
Kt (transport affinity) [2]: 1 µM
